According to patent publication US6352970B1, “Treatment of skeletal disorders” (Pfizer Inc., priority 1998, dated 2002):

System: ob/ob mouse
Experiment: Leptin administration for four weeks in ob/ob mouse, bone measured by peripheral quantitative computerized tomography
Format: in vivo
Description: Administration of leptin for four weeks increased femur length by 6% and increased cortical bone volumetric content by 18%, as determined by peripheral quantitative computerized tomography.

[1] = peripheral quantitative computerized tomography

## leptin: a product of the obese gene, a 16 kDa protein produced by mature adipocytes and secreted in plasma
  increase in femur length: 6%
[1]
  bone volumetric density: unchanged
  increase in cortical bone volumetric content: 18%
